Assay [1] concerns the target T1, purified wild type MGL (wt-MGLL 6H-11-313) (Homo sapiens, UniProt Q99685).
T1 construct: purified wild type MGL (wt-MGLL 6H-11-313)
T1 sequence (Q99685 1-303): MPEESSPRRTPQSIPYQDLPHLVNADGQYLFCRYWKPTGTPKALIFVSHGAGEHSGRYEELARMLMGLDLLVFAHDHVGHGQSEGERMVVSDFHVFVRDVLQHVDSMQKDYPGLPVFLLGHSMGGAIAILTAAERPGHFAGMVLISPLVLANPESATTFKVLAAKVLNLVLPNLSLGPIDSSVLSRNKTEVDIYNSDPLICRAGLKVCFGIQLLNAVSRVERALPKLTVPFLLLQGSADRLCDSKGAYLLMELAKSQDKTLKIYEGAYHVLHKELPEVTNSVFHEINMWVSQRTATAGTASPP
Nature of the assay: MGL enzyme activity assay (4MU-B cleavage), wild type MGL. The assay is classed as biochemical. Particulars: 10 μM 4MU-B, 5 nM enzyme, 37° C., read-out: MGL wild type inh IC50. The protocol:
All rate-based assays were performed in black 384-well polypropylene PCR microplates (Abgene) in a total volume of 30 μL. Substrate 4-methylumbelliferyl butyrate (4MU-B; Sigma) and either purified mutant MGL (mut-MGLL 11-313 L179S L186S) or purified wild type MGL (wt-MGLL 6H-11-313) were diluted separately into 20 mM PIPES buffer (pH=7.0), containing 150 mM NaCl and 0.001% Tween 20. Compounds of Formula (I) were pre-dispensed (50 nL) into the assay plate using a Cartesian Hummingbird prior to adding 4MU-B (25 μL of 1.2× solution to a final concentration of 10 μM) followed by enzyme (5 μL of a 6× solution to a final concentration of 5 nM) to initiate the reaction. Final compound concentrations ranged from 17 to 0.0003 μM. The fluorescence change due to 4MU-B cleavage was monitored with excitation and emission wavelengths of 335 and 440 nm, respectively, and a bandwidth of 10 nm (Safire^2, Tecan) at 37° C. for 5 min.
The IC50 values for compounds of Formula (I) were determined using Excel from a fit of the equation to the concentration-response plot of the fractional activity as a function of inhibitor concentration.

Another assay concerns the target T2, mutant MGL (Homo sapiens, UniProt Q99685, L169S/L176S).
T2 construct: purified mutant MGL (mut-MGLL 11-313 L179S L186S)
T2 sequence (Q99685 1-303 L169S/L176S): T1 sequence (Q99685 1-303) with L169S, L176S
Nature of the assay: MGL ThermoFluor assay - mutant. In kind it is binding. Here is the method: The ThermoFluor (TF) assay is a 384-well plate-based binding assay that measures thermal stability of proteins^1,2. The experiments were carried out using instruments available from Johnson & Johnson Pharmaceutical Research & Development, LLC. TF dye used in all experiments was 1,8-ANS (Invitrogen: A-47). Final TF assay conditions used for MGL studies were 0.07 mg/ml of mutant MGL, 100 μM ANS, 200 mM NaCl, 0.001% Tween-20 in 50 mM PIPES (pH=7.0).
Screening compound plates contained 100% DMSO compound solutions at a single concentration. For follow-up concentration-response studies, compounds were arranged in a pre-dispensed plate (Greiner Bio-one: 781280), wherein compounds were serially diluted in 100% DMSO across 11 columns within a series. Columns 12 and 24 were used as DMSO reference and contained no compound. For both single and multiple compound concentration-repsonse experiments, the compound aliquots (46 nL) were robotically predispensed directly into 384-well black assay plates (Abgene: TF-0384/k) using the Hummingbird liquid handler. Following compound dispension, protein and dye solutions were added to achieve the final assay volume of 3 μL. The assay solutions were overlayed with 1 μl of silicone oil (Fluka, type DC 200: 85411) to prevent evaporation.
Bar-coded assay plates were robotically loaded onto a thermostatically controlled PCR-type thermal block and then heated from 40 to 90° C. degrees at a ramp-rate of 1° C./min for all experiments. Fluorescence was measured by continuous illumination with UV light (Hamamatsu LC6), supplied via fiber optics and filtered through a band-pass filter (380-400 nm; >6 OD cutoff). Fluorescence emission of the entire 384-well plate was detected by measuring light intensity using a CCD camera (Sensys, Roper Scientific) filtered to detect 500±25 nm, resulting in simultaneous and independent readings of all 384 wells. A single image with 20-sec exposure time was collected at each temperature, and the sum of the pixel intensity in a given area of the assay plate was recorded vs temperature and fit to standard equations to yield the Tm^1. • 1. Pantoliano, M. W., Petrella, E. C., Kwasnoski, J. D., Lobanov, V. S., Myslik, J., Graf, E., Carver, T., Asel, E., Springer, B. A., Lane, P., and Salemme, F. R. (2001) J Biomol Screen 6, 429-40. • 2. Matulis, D., Kranz, J. K., Salemme, F. R., and Todd, M. J. (2005) Biochemistry 44, 5258-66.
The Kd values for compounds of Formula (I) were determined from a fit of the equation to the concentration-response plot of the fractional activity as a function of Tm. For some experiments, quantitative NMR spectroscopy (qNMR) was used to measure concentration of the initial 100% DMSO compound solutions and, using the same fitting method, qKd values were determined
(Differential scanning fluorimetry follows unfolding on heating by fluorescence.)

[2] abbreviates: 0.07 mg/ml mutant MGL, pH=7.0, read-out: MGL mutant ThermoFluor Kd.
Setting [3] is: compound concentration measured by qNMR, read-out: MGL mutant ThermoFluor qKd (using qNMR conc.).

Changes are numbered by the printed parent chain. Like-named read-outs stand apart in the source and are kept apart here.

Broadly, the IC50 is the concentration at which inhibition is half-maximal.

Take `O=C(c1ccc2c(ccn2-c2ccc(F)c(F)c2)c1)N1CC(C2CCN(C(=O)c3nccs3)CC2)C1`: the half-inhibitory concentration (IC50) in assay [1] was under 5 nM. Further, the Kd at mutant MGL (setting [2]) came out at 0.6 nM.

Consider `O=C(c1cc[nH]c1)N1CCC(C2CN(C(=O)c3ccc(-c4ccccc4)cc3)C2)CC1` [Cpd 4, 4-[1-(Biphenyl-4-ylcarbonyl)azetidin-3-yl]-1-(1H-pyrrol-3-ylcarbonyl)piperidine], for which, in assay [1], the IC50 turned out to be 154 nM. Moreover, the Kd on mutant MGL (setting [2]) came out at 162 nM.

For `O=C(c1ccc(-c2ccccc2)cc1)N1CC(C2CCN(C(=O)c3cncs3)CC2)C1` [Cpd 5, 4-[1-(Biphenyl-4-ylcarbonyl)azetidin-3-yl]-1-(1,3-thiazol-5-ylcarbonyl)piperidine], in assay [1], the IC50 was determined as 87.6 nM. At mutant MGL (setting [2]), the Kd stood at 64.1 nM.

Turning to `O=C(c1ccccc1)N1CCC(O)(C2CN(C(=O)c3cc4cc(C(F)(F)F)ccc4s3)C2)CC1` [Cpd 6, 1-(Phenylcarbonyl)-4-(1-{[5-(trifluoromethyl)-1-benzothiophen-2-yl]carbonyl}azetidin-3-yl)piperidin-4-ol], the IC50 in assay [1] was 918 nM. In addition, the Kd at mutant MGL (setting [2]) worked out at 258 nM.

On to `O=C(c1cscn1)N1CCC(C2CN(C(=O)c3ccc(-c4ccccc4)cc3F)C2)CC1` [Cpd 9, 4-{1-[(3-Fluorobiphenyl-4-yl)carbonyl]azetidin-3-yl}-1-(1,3-thiazol-4-ylcarbonyl)piperidine], for which the IC50 in assay [1] was 114 nM. Also, the Kd on mutant MGL (setting [2]) turned out to be 100 nM.

Turning to `O=C(c1cccc(-c2cccc(F)c2)c1)N1CC(C2CCN(C(=O)c3cscn3)CC2)C1` [Cpd 11, 4-{1-[(3′-Fluorobiphenyl-3-yl)carbonyl]azetidin-3-yl}-1-(1,3-thiazol-4-ylcarbonyl)piperidine], in assay [1], the IC50 turned out to be 498 nM. In addition, at mutant MGL (setting [2]), the Kd came out at 732 nM.

Take `O=C(c1cccc(-c2cccc(F)c2)c1)N1CC(C2CCN(C(=O)c3ccc[nH]3)CC2)C1` [Cpd 23, 4-{1-[(3′-Fluorobiphenyl-3-yl)carbonyl]azetidin-3-yl}-1-(1H-pyrrol-2-ylcarbonyl)piperidine]: in assay [1], the 50% inhibitory concentration (IC50) came to 368 nM. Moreover, the Kd at mutant MGL (setting [2]) was 500 nM.

With `O=C(c1cscn1)N1CC(C2CCN(C(=O)c3ccc(-c4ccccc4)cc3F)CC2)C1` [Cpd 46], in assay [1], the half-maximal inhibitory concentration (IC50) is 111 nM. Moreover, the Kd on mutant MGL (setting [3]) was 20 nM.

On to `O=C(c1ccc(-c2cccc(C(F)(F)F)c2)cc1)N1CCC(C2CN(C(=O)c3nccs3)C2)CC1` [Cpd 48, 4-[1-(1,3-Thiazol-2-ylcarbonyl)azetidin-3-yl]-1-{[3′-(trifluoromethyl)biphenyl-4-yl]carbonyl}piperidine], for which the IC50 in assay [1] was under 5 nM. For the same molecule, the Kd on mutant MGL (setting [3]) was found to be 1 nM.

As for `Cc1c(C(=O)N2CCC(C3CN(C(=O)c4cscn4)C3)CC2)sc2cc(C(F)(F)F)ccc12` [Cpd 61], in assay [1], the IC50 worked out at 211 nM. In addition, the Kd came to 0.6 nM on mutant MGL (setting [2]) and 0.5 nM on mutant MGL (setting [3]).

With `O=C(c1ccc2c(ccn2-c2ccc(C(F)(F)F)cc2)c1)N1CCC(C2CN(C(=O)c3nccs3)C2)CC1` [Cpd 75, 5-({4-[1(1,3-Thiazol-2-ylcarbonyl)azetidin-3-yl]piperidin-1-yl}carbonyl)-1-[4-(trifluoromethyl)phenyl]-1H-indole], the IC50 in assay [1] was under 5 nM. For the same molecule, on mutant MGL (setting [3]), the Kd was 3.9 nM.

With `O=C(c1ccc2c(ccn2-c2ccc(F)c(F)c2)c1)N1CCC(C2CN(C(=O)c3nccs3)C2)CC1` [Cpd 78, 1-(3,4-Difluorophenyl)-5-({4-[1-(1,3-thiazol-2-ylcarbonyl)azetidin-3-yl]piperidin-1-yl}carbonyl)-1H-indole], in assay [1], the half-maximal inhibitory concentration (IC50) is under 5 nM. Besides, the Kd at mutant MGL (setting [3]) is 2.3 nM.

For `O=C(c1ccc2c(c1)ncn2-c1ccc(F)cc1)N1CC(C2CCN(C(=O)c3nccs3)CC2)C1` [Cpd 81, 1-(4-Fluorophenyl)-5-({3-[1-(1,3-thiazol-2-ylcarbonyl)piperidin-4-yl]azetidin-1-yl}carbonyl)-1H-benzimidazole], the IC50 in assay [1] came to 23.2 nM. In addition, at mutant MGL (setting [3]), the Kd is 14.8 nM.

In the case of `O=C(c1ccc2c(c1)ncn2-c1ccc(F)c(F)c1)N1CC(C2CCN(C(=O)c3nccs3)CC2)C1` [Cpd 82, 1-(3,4-Difluorophenyl)-5-({3-[1-(1,3-thiazol-2-ylcarbonyl)piperidin-4-yl]azetidin-1-yl}carbonyl)-1H-benzimidazole], the IC50 in assay [1] came out at 35.5 nM. In addition, on mutant MGL (setting [3]), the Kd is 22.8 nM.

As to `O=C(c1ccc2c(c1)ncn2-c1ccc(C(F)(F)F)cc1)N1CC(C2CCN(C(=O)c3nccs3)CC2)C1` [Cpd 83, 5-({30[1-(1,3-Thiazol-2-ylcarbonyl)piperidin-4-yl]azetidin-1-yl}carbonyl)-1-[4-(trifluoromethyl)phenyl]-1H-benzimidazole], in assay [1], the IC50 is 9.16 nM. The Kd on mutant MGL (setting [3]) amounted to 13.6 nM.

As for `O=C(c1ccc2c(c1)ncn2CC(F)(F)F)N1CC(C2CCN(C(=O)c3nccs3)CC2)C1` [Cpd 84, 5-({3-[1-(1,3-Thiazol-2-ylcarbonyl)piperidin-4-yl]azetidin-1-yl}carbonyl)-1-(2,2,2-trifluoroethyl)-1H-benzimidazole], the concentration for half-maximal inhibition (IC50) in assay [1] amounted to 175 nM. In addition, at mutant MGL (setting [3]), the Kd was determined as 66.3 nM.

Consider `O=C(c1ccc2c(c1)ncn2CCC(F)(F)F)N1CC(C2CCN(C(=O)c3nccs3)CC2)C1` [Cpd 85, 5-({3-[1-(1,3-Thiazol-2-ylcarbonyl)piperidin-4-yl]azetidin-1-yl}carbonyl)-1-(3,3,3-trifluoropropyl)-1H-benzimidazole], for which the concentration for half-maximal inhibition (IC50) in assay [1] came to 280 nM. The Kd at mutant MGL (setting [3]) amounted to 64.5 nM.

`Cc1nc2cc(C(=O)N3CC(C4CCN(C(=O)c5nccs5)CC4)C3)ccc2n1-c1ccccc1` [Cpd 86, 2-Methyl-1-phenyl-5-({3-[1-(1,3-thiazol-2-ylcarbonyl)piperidin-4-yl]azetidin-1-yl}carbonyl)-1H-benzimidazole]: the IC50 in assay [1] was found to be 18.7 nM. Also, the Kd on mutant MGL (setting [3]) came out at 10.6 nM.

For `Cc1nc2cc(C(=O)N3CC(C4CCN(C(=O)c5nccs5)CC4)C3)ccc2n1-c1ccc(F)cc1` [Cpd 87, 1-(4-Fluorophenyl)-2-methyl-5-({3-[1-(1,3-thiazol-2-ylcarbonyl)piperidin-4-yl]azetidin-1-yl}carbonyl)-1H-benzimidazole], the IC50 in assay [1] came out at 31.6 nM. In addition, the Kd on mutant MGL (setting [3]) turned out to be 7.5 nM.

These data come from patent US8513423B2 (Janssen Pharmaceutica, NV, priority 2010, dated 2013).
